Laboratory results as given in PMC8632988, “Inhibition of SYK and cSrc kinases can protect bone and cartilage in preclinical models of osteoarthritis and rheumatoid arthritis” (Scientific Reports, 2021).
Values joined by “and” are separate entries in the source; they are usually repeats but may differ in a detail not shown here. Equal entries are not always repeated. Where two headings read alike, the source gives them in different places.

Test: Pharmacokinetics after single oral administration to rats
Format: in vivo, rat
Details: for AUC(0-inf) / Cmax / Tmax / AUC(0-t) / half-life: po; for half-life: read-out: Terminal t1/2, Mean (converted); for AUC: read-out: AUC48
Procedure: Experiments were performed at ChemPartner, Shanghai, China and approved by Institutional Ethics Committee (IEC) of ChemPartner. Male Wistar 10–12 weeks old rats with body weights of 185–220 g and male New Zealand rabbits with body weights of 2.0–2.3 kg were purchased from Shanghai SLAC Laboratory Animal Co., Ltd. MT-SYK-03 was administered to the three groups of rats (six rats per group) via oral gavage at 10 mL/kg concentration, and in rabbits 5 mL/kg concentration. Blood samples were kept on ice and centrifuged (2000 g, 4 ℃, 5 min) within 15 min post sampling.

[1] = male, Wistar, rat, plasma, oral, 200 mg/kg, Table S8, 200 mg/kg PO, male Wistar rats, individual Rat#13-18, read-out: Plasma concentration
[2] = male, Wistar, rat, plasma, oral, 200 mg/kg, Table S8, 200 mg/kg PO, male Wistar rats, mean of Rat#13-18, read-out: Plasma concentration, Mean
[3] = male, Wistar, rat, plasma, rats, single oral 30 mg/kg
[4] = male, Wistar, rat, plasma, rats, single oral 100 mg/kg
[5] = male, Wistar, rat, plasma, rats, single oral 200 mg/kg

COc1cc(Nc2ncnc(Nc3cc4c(cn3)NC(=O)C(C)(C)O4)n2)cc(OC)c1OC [MT-SYK-03]
concentration at 24 h (male, Wistar, rat, plasma, oral, 100 mg/kg, Table S7, 100 mg/kg PO, male Wistar rats, mean of Rat#7-12): 8 ng/mL | concentration at 48 h (male, Wistar, rat, plasma, oral, 100 mg/kg, Table S7, 100 mg/kg PO, male Wistar rats, mean of Rat#7-12, read-out: Plasma concentration, Mean): 1.79 ng/mL | concentration at 0.25 h [1]: 489 ng/mL | concentration at 0.25 h [2]: 425 ng/mL | concentration at 0.5 h [1]: 858 ng/mL | concentration at 0.5 h [2]: 892 ng/mL | concentration at 1 h [1]: 984 ng/mL | concentration at 1 h [2]: 1220 ng/mL | concentration at 2 h [1]: 1180 ng/mL | concentration at 2 h [2]: 1040 ng/mL | concentration at 4 h (male, Wistar, rat, plasma, oral, 200 mg/kg, Table S8, 200 mg/kg PO, male Wistar rats, 4 h, mean of Rat#13-18): 725 ng/mL | concentration at 8 h (male, Wistar, rat, plasma, oral, 200 mg/kg, Table S8, 200 mg/kg PO, male Wistar rats, 8 h, mean of Rat#13-18): 206 ng/mL | concentration at 24 h (male, Wistar, rat, plasma, oral, 200 mg/kg, Table S8, 200 mg/kg PO, male Wistar rats, mean of Rat#13-18): 4.99 ng/mL | concentration at 48 h [2]: 5.44 ng/mL | AUC(0-inf) (male, Wistar, rat, plasma, 30 mg/kg, rats, single oral 30 mg/kg, read-out: AUCinf): 2420 ± 945 ng·h/mL | Cmax (male, Wistar, rat, plasma, 30 mg/kg, rats, single oral 30 mg/kg, read-out: Cmax): 416 ± 114 ng/mL | Tmax (male, Wistar, rat, plasma, 30 mg/kg, rats, single oral 30 mg/kg, read-out: Tmax): 1.5 ± 0.548 h | Tmax (male, Wistar, rat, plasma, 100 mg/kg, Table S6, 100 mg/kg PO, male Wistar rats, plasma, individual Rat#1-6, read-out: Tmax): 2 h | AUC(0-inf) (male, Wistar, rat, plasma, 100 mg/kg, Table S6, 100 mg/kg PO, male Wistar rats, plasma, mean of Rat#1-6, read-out: AUCINF, Mean): 2420 ng·h/mL | AUC(0-t) (male, Wistar, rat, plasma, 100 mg/kg, Table S6, 100 mg/kg PO, male Wistar rats, plasma, mean of Rat#1-6, read-out: AUClast, Mean): 2340 ng·h/mL | Cmax (male, Wistar, rat, plasma, 100 mg/kg, Table S6, 100 mg/kg PO, male Wistar rats, plasma, mean of Rat#1-6, read-out: Cmax, Mean): 416 ng/mL | half-life (male, Wistar, rat, plasma, 100 mg/kg, Table S6, 100 mg/kg PO, male Wistar rats, plasma, mean of Rat#1-6): 5.53 h | Tmax (male, Wistar, rat, plasma, 100 mg/kg, Table S6, 100 mg/kg PO, male Wistar rats, plasma, mean of Rat#1-6, read-out: Tmax, Mean): 1.5 h | AUC(0-inf) (male, Wistar, rat, plasma, 100 mg/kg, Table S7, 100 mg/kg PO, male Wistar rats, plasma, individual Rat#7-12, read-out: AUCINF): 4250 ng·h/mL | AUC(0-t) (male, Wistar, rat, plasma, 100 mg/kg, Table S7, 100 mg/kg PO, male Wistar rats, plasma, individual Rat#7-12, read-out: AUClast): 4240 ng·h/mL | Cmax (male, Wistar, rat, plasma, 100 mg/kg, Table S7, 100 mg/kg PO, male Wistar rats, plasma, individual Rat#7-12, read-out: Cmax): 822 ng/mL | Tmax (male, Wistar, rat, plasma, 100 mg/kg, Table S7, 100 mg/kg PO, male Wistar rats, plasma, individual Rat#7-12, read-out: Tmax): 1 h | AUC(0-inf) (male, Wistar, rat, plasma, 100 mg/kg, Table S7, 100 mg/kg PO, male Wistar rats, plasma, mean of Rat#7-12, read-out: AUCINF, Mean): 4270 ng·h/mL | AUC(0-t) (male, Wistar, rat, plasma, 100 mg/kg, Table S7, 100 mg/kg PO, male Wistar rats, plasma, mean of Rat#7-12, read-out: AUClast, Mean): 4260 ng·h/mL | Cmax (male, Wistar, rat, plasma, 100 mg/kg, Table S7, 100 mg/kg PO, male Wistar rats, plasma, mean of Rat#7-12, read-out: Cmax, Mean): 864 ng/mL | half-life (male, Wistar, rat, plasma, 100 mg/kg, Table S7, 100 mg/kg PO, male Wistar rats, plasma, mean of Rat#7-12): 4.06 h | Tmax (male, Wistar, rat, plasma, 100 mg/kg, Table S7, 100 mg/kg PO, male Wistar rats, plasma, mean of Rat#7-12, read-out: Tmax, Mean): 1 h | AUC(0-inf) (male, Wistar, rat, plasma, 100 mg/kg, rats, single oral 100 mg/kg, read-out: AUCinf): 4270 ± 608 ng·h/mL | Cmax (male, Wistar, rat, plasma, 100 mg/kg, rats, single oral 100 mg/kg, read-out: Cmax): 864 ng/mL and 1.42 µM | Tmax (male, Wistar, rat, plasma, 100 mg/kg, rats, single oral 100 mg/kg, read-out: Tmax): 1 h | AUC(0-inf) (male, Wistar, rat, plasma, 200 mg/kg, Table S8, 200 mg/kg PO, male Wistar rats, plasma, individual Rat#13-18, read-out: AUCINF): 7500 ng·h/mL | AUC(0-t) (male, Wistar, rat, plasma, 200 mg/kg, Table S8, 200 mg/kg PO, male Wistar rats, plasma, individual Rat#13-18, read-out: AUClast): 7480 ng·h/mL | Cmax (male, Wistar, rat, plasma, 200 mg/kg, Table S8, 200 mg/kg PO, male Wistar rats, plasma, individual Rat#13-18, read-out: Cmax): 1180 ng/mL | Tmax (male, Wistar, rat, plasma, 200 mg/kg, Table S8, 200 mg/kg PO, male Wistar rats, plasma, individual Rat#13-18, read-out: Tmax): 2 h | AUC(0-inf) (male, Wistar, rat, plasma, 200 mg/kg, Table S8, 200 mg/kg PO, male Wistar rats, plasma, mean of Rat#13-18, read-out: AUCINF, Mean): 7320 ng·h/mL | AUC(0-t) (male, Wistar, rat, plasma, 200 mg/kg, Table S8, 200 mg/kg PO, male Wistar rats, plasma, mean of Rat#13-18, read-out: AUClast, Mean): 7270 ng·h/mL | Cmax (male, Wistar, rat, plasma, 200 mg/kg, Table S8, 200 mg/kg PO, male Wistar rats, plasma, mean of Rat#13-18, read-out: Cmax, Mean): 1280 ng/mL | half-life (male, Wistar, rat, plasma, 200 mg/kg, Table S8, 200 mg/kg PO, male Wistar rats, plasma, mean of Rat#13-18): 5.08 h | Tmax (male, Wistar, rat, plasma, 200 mg/kg, Table S8, 200 mg/kg PO, male Wistar rats, plasma, mean of Rat#13-18, read-out: Tmax, Mean): 1.33 h | AUC(0-inf) (male, Wistar, rat, plasma, 200 mg/kg, rats, single oral 200 mg/kg, read-out: AUCinf): 7320 ± 1460 ng·h/mL | Cmax (male, Wistar, rat, plasma, 200 mg/kg, rats, single oral 200 mg/kg, read-out: Cmax): 1280 ng/mL and 2.1 µM | Tmax (male, Wistar, rat, plasma, 200 mg/kg, rats, single oral 200 mg/kg, read-out: Tmax): 1.33 ± 0.516 h | k el [3]: 4.44e-05 s⁻¹ | AUC [3]: 2340 ± 979 ng·h/mL | k el [4]: 5.28e-05 s⁻¹ | AUC [4]: 4260 ± 621 ng·h/mL | k el [5]: 4.72e-05 s⁻¹ | AUC [5]: 7270 ± 1490 ng·h/mL | Average plasma concentration after administration in rats (rats, PO): 200 to 700 nM | MRT24 (rats, single oral 30 mg/kg): 4.26 ± 0.57 h | τ1/2 (rats, single oral 30 mg/kg): 5.53 ± 2.38 h | MRT24 (rats, single oral 100 mg/kg): 4.12 ± 0.56 h | τ1/2 (rats, single oral 100 mg/kg): 4.06 ± 1.49 h | MRT24 (rats, single oral 200 mg/kg): 4.89 ± 1.63 h | τ1/2 (rats, single oral 200 mg/kg): 5.08 ± 2.39 h
